Where two headings read alike, the source gives them in different places.
What was measured:
[1] = test system: A2780 cells; test: In-vitro cell proliferation assay (SRB), A2780 cells; type: cell-based; conditions: Homo sapiens, A2780, 72 h, A2780 cells, 72 hours, read-out: A2780 IC50
Summary of the method: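 Viable cells measured by SRB staining after 6% TCA fixation, absorbance 570 nm. Media-only background subtracted; % inhibition derived at two compound concentrations.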

[2] = target: T1, NAMPT (Homo sapiens, UniProt P43490); test: Biochemical inhibition assay: NAMPT enzymatic reaction, NMN quantified by mass spectrometry; conditions: read-out: Biochem IC50
T1 construct: His tag; host or cells: E. coli
T1 sequence (P43490 whole entry): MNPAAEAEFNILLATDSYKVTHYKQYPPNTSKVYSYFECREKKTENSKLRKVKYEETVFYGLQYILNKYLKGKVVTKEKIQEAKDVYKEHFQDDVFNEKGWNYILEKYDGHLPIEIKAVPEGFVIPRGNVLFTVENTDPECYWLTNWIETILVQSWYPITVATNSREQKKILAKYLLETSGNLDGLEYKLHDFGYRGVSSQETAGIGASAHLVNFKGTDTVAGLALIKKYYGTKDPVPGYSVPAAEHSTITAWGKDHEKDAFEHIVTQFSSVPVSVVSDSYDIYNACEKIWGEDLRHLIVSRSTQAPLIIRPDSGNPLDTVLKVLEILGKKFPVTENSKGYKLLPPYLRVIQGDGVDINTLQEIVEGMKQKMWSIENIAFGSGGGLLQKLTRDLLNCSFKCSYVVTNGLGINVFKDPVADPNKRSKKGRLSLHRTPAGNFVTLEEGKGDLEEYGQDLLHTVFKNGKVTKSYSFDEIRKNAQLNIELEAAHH
Summary of the method: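 Inhibition of E. coli-expressed His-tagged human NAMPT, measured as NMN formation by mass spectrometry after a 30 min room-temperature reaction containing 1 μM NAM, 100 μM PRPP and 2.5 mM ATP.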

| Compound | IC50 ([1]; SRB) | IC50 ([2]; NAMPT enzymatic reaction) | IC50 ([2]; NAMPT enzymatic assay) | IC50 ([1]; SRB assay) |
| --- | --- | --- | --- | --- |
| CCCOc1ccc(S(=O)(=O)c2ccc(CNC(=O)c3cnc4[nH]ncc4c3)cc2)cc1Cl [N-({4-[(3-chloro-4-propoxybenzene)sulfonyl]phenyl}methyl)-1H-pyrazolo[3,4-b]pyridine-5-carboxamide] | 9.58 nM | 7.9 nM |  |  |
| Cc1ccc(S(=O)(=O)c2ccc(CNC(=O)c3cc4cnccc4[nH]3)cc2)c(C)c1 [N-({4-[(2,4-dimethylbenzene)sulfonyl]phenyl}methyl)-1H-pyrrolo[3,2-c]pyridine-2-carboxamide] | 12 nM |  | 21 nM |  |
| O=C(NCc1ccc(S(=O)(=O)c2cccc(OCC(F)(F)F)c2)cc1)c1cnc2nccn2c1 | 11.4 nM |  | 5.5 nM |  |
| O=C(NCc1ccc(S(=O)(=O)c2ccc(-n3cccn3)cc2F)cc1)c1cnc2[nH]ncc2c1 | 34.4 nM |  | 38.9 nM |  |
| COc1ccc(F)c(F)c1S(=O)(=O)c1ccc(CNC(=O)c2cc3cnccc3[nH]2)cc1 [N-({4-[(2,3-difluoro-6-methoxybenzene)sulfonyl]phenyl}methyl)-1H-pyrrolo[3,2-c]pyridine-2-carboxamide] | 84.9 nM | 204 nM |  |  |
| O=C(NCc1ccc(S(=O)(=O)c2ccc(OCC(F)(F)F)c(F)c2)cc1)c1ccc2nccn2c1 | 8 nM |  | 15 nM |  |
| O=C(NCc1ccc(S(=O)(=O)c2cccc(-c3ccc(F)c(F)c3)n2)cc1)c1cnc2[nH]ncc2c1 [N-({4-[6-(3,4-difluorophenyl)pyridine-2-sulfonyl]phenyl}methyl)-1H-pyrazolo[3,4-b]pyridine-5-carboxamide] | 41 nM |  | 17.8 nM |  |
| COc1ccc(C(F)(F)F)cc1S(=O)(=O)c1ccc(CNC(=O)c2cnc3nccn3c2)cc1 | 3.6 nM |  | 6.8 nM |  |
| Cn1cc2ccc(S(=O)(=O)c3ccc(CNC(=O)c4cnc5nccn5c4)cc3)cc2n1 [N-{[4-(2-methyl-2H-indazole-6-sulfonyl)phenyl]methyl}imidazo[1,2-a]pyrimidine-6-carboxamide] | 6.1 nM |  | 1.2 nM |  |
| CCOc1cc(S(=O)(=O)c2ccc(CNC(=O)c3cc4ccncc4s3)cc2)ccc1F | 3.1 nM | 3.3 nM |  |  |
| COc1cccc(Cl)c1S(=O)(=O)c1ccc(CNC(=O)c2cc3ccncc3s2)cc1 | 2.9 nM | 2.7 nM |  |  |
| O=C(NCc1ccc(S(=O)(=O)c2cccc3cc[nH]c23)cc1)c1cc2ccncc2s1 [N-{[4-(1H-indole-7-sulfonyl)phenyl]methyl}thieno[2,3-c]pyridine-2-carboxamide] |  | 3 nM |  | 2.7 nM |
| Cc1cc(F)ccc1S(=O)(=O)c1ccc(CNC(=O)c2cnc3[nH]ncc3c2)cc1 [N-({4-[(4-fluoro-2-methylbenzene)sulfonyl]phenyl}methyl)-1H-pyrazolo[3,4-b]pyridine-5-carboxamide] | 98.3 nM | 78.8 nM |  |  |
| CCCS(=O)(=O)Nc1cccc(S(=O)(=O)c2ccc(CNC(=O)c3cnc4nccn4c3)cc2)c1 | 86.2 nM |  | 2.3 nM |  |
| O=C(NCc1ccc(S(=O)(=O)c2ccccc2)cc1)c1ccc2cnccc2n1 [N-{[4-(benzenesulfonyl)phenyl]methyl}-1,6-naphthyridine-2-carboxamide] | > 10000 nM |  | 2850 nM |  |
| Cc1ccc(S(=O)(=O)c2ccc(CNC(=O)c3ccc4nccn4c3)cc2)c(C)c1 [N-({4-[(2,4-dimethylbenzene)sulfonyl]phenyl}methyl)imidazo[1,2-a]pyridine-6-carboxamide] | 32.1 nM | 21.6 nM |  |  |
| O=C(NCc1ccc(S(=O)(=O)c2ccc(C(F)(F)F)c(Cl)c2)cc1)c1cnc2[nH]ncc2c1 [N-[(4-{[3-chloro-4-(trifluoromethyl)benzene]sulfonyl}phenyl)methyl]-1H-pyrazolo[3,4-b]pyridine-5-carboxamide] | 26.4 nM |  | 84.3 nM |  |
| O=C(NCc1ccc(S(=O)(=O)c2cc(C(F)(F)F)ccc2Cl)cc1)c1cnc2nccn2c1 | 14.1 nM |  | 7 nM |  |
| CCCCOc1cccc(S(=O)(=O)c2ccc(CNC(=O)c3ccc4nccn4c3)cc2)c1 | 18 nM | 4.7 nM |  |  |
| O=C(NCc1ccc(S(=O)(=O)c2cc(Cl)ccc2OCC(F)F)cc1)c1ccc2nccn2c1 | 0.3 nM |  | 2 nM |  |
| O=C(NCc1ccc(S(=O)(=O)c2ccc(C(F)(F)F)cn2)cc1)c1ccc2nccn2c1 [N-({4-[5-(trifluoromethyl)pyridine-2-sulfonyl]phenyl}methyl)imidazo[1,2-a]pyridine-6-carboxamide] | 32.6 nM |  | 46.3 nM |  |
| CCCOc1ccc(S(=O)(=O)c2ccc(CNC(=O)c3ccc4nccn4c3)cc2)cc1Cl | 6 nM | 6.5 nM |  |  |
| COc1cc(F)ccc1S(=O)(=O)c1ccc(CNC(=O)c2cc3ccncc3o2)cc1 | 16 nM | 12.7 nM |  |  |

Source: US12336981B2, “Compounds and compositions for the inhibition of NAMPT” (Valo Health, Inc., priority 2010, dated 2025)
